Laboratory results: patent US5747467A, “Erythromycins” (Roussel Uclaf, priority 1995, dated 1998)
In brackets after ≈: the same amount, converted by molar mass.

How the values were obtained:
Type in all cases: cell-based
[1] = tested on: Staphylococcus aureus 011G025I; test: M.I.C., dilutions in liquid medium; details: 24 hours at 37° C., read-out: minimal inhibitory concentration (M.I.C.)
Procedure: (§1) Method of dilutions in liquid medium A series of tubes was prepared into which an equal quantity of sterile nutritive medium was distributed. Increasing quantities of the product to be studied were distributed into each tube and then each tube was seeded with a bacterial strain. After incubation for twenty-four hours in an oven at 37° C., the growth inhibition was evaluated by trans-illumination which allowed the minimal inhibitory concentrations (M.I.C.), expressed in micrograms/cm^3, to be determined.

[2] = tested on: Staphylococcus aureus 011UC4; test: M.I.C., dilutions in liquid medium; details: 24 hours at 37° C., read-out: minimal inhibitory concentration (M.I.C.)
Procedure: as §1

[3] = tested on: Staphylococcus epidermidis 012GO11I; test: M.I.C., dilutions in liquid medium; details: 24 hours at 37° C., read-out: minimal inhibitory concentration (M.I.C.)
Procedure: as §1

[4] = tested on: Streptococcus agalactiae group B 02B1HT1; test: M.I.C., dilutions in liquid medium; details: GROUPB02B1HT1, 24 hours at 37° C., read-out: minimal inhibitory concentration (M.I.C.)
Procedure: as §1

[5] = tested on: Streptococcus agalactiae group B 02B1SJ1; test: M.I.C., dilutions in liquid medium; details: GROUPB02B1SJ1, 24 hours at 37° C., read-out: minimal inhibitory concentration (M.I.C.)
Procedure: as §1

[6] = tested on: Streptococcus faecalis group D 02D2UC1; test: M.I.C., dilutions in liquid medium; details: Enterococcus faecalis, GROUPD02D2UC1, 24 hours at 37° C., read-out: minimal inhibitory concentration (M.I.C.)
Procedure: as §1

[7] = tested on: Streptococcus faecium group D 02D3HT1; test: M.I.C., dilutions in liquid medium; details: Enterococcus faecium, GROUPD02D3HT1, 24 hours at 37° C., read-out: minimal inhibitory concentration (M.I.C.)
Procedure: as §1

[8] = tested on: Streptococcus mitis 02mitCB1; test: M.I.C., dilutions in liquid medium; details: 24 hours at 37° C., read-out: minimal inhibitory concentration (M.I.C.)
Procedure: as §1

[9] = tested on: Streptococcus mitis 02mitGR16I; test: M.I.C., dilutions in liquid medium; details: 24 hours at 37° C., read-out: minimal inhibitory concentration (M.I.C.)
Procedure: as §1

[10] = tested on: Streptococcus pneumoniae 030SJ5; test: M.I.C., dilutions in liquid medium; details: 24 hours at 37° C., read-out: minimal inhibitory concentration (M.I.C.)
Procedure: as §1

[11] = tested on: Streptococcus pyogenes group A 02A1UC1; test: M.I.C., dilutions in liquid medium; details: GROUPA02A1UC1, 24 hours at 37° C., read-out: minimal inhibitory concentration (M.I.C.)
Procedure: as §1

[12] = tested on: Streptococcus sp group G 02G0GR5; test: M.I.C., dilutions in liquid medium; details: GROUPG02G0GR5, 24 hours at 37° C., read-out: minimal inhibitory concentration (M.I.C.)
Procedure: as §1

[13] = tested on: Haemophilus Influenzae 351HT3, 351CB12, 351CA1 and 351GR6; test: activity on gram (-) bacterial strains
Procedure: as §1

MIC [1]: 0.08 µg/mL (≈ 0.0995 µM)
MIC [2]: 0.04 µg/mL (≈ 0.0498 µM)
MIC [3]: 0.15 µg/mL (≈ 0.187 µM)
MIC [4]: ≤ 0.02 µg/mL
MIC [5]: 0.08 µg/mL (≈ 0.0995 µM)
MIC [6]: 0.02 µg/mL (≈ 0.0249 µM)
MIC [7]: ≤ 0.02 µg/mL
MIC [8]: ≤ 0.02 µg/mL
MIC [9]: ≤ 0.02 µg/mL
MIC [10]: 0.02 µg/mL (≈ 0.0249 µM)
MIC [11]: ≤ 0.02 µg/mL
MIC [12]: 0.02 µg/mL (≈ 0.0249 µM)
Compound: CC[C@H]1OC(=O)C(C)(F)C(=O)[C@H](C)[C@@H](O[C@@H]2O[C@H](C)C[C@H](N(C)C)[C@H]2O)[C@](C)(OC)C[C@@H](C)C(=O)[C@H](C)[C@H]2N(CCCCn3cnc4cccnc43)C(=O)O[C@]12C (single isomer, unassigned) [Example 1, 11,12-dideoxy-3-de[(2,6-dideoxy-3-C-methyl-3-0-methyl-α-L-ribohexopyranosyl)-oxy]-2-fluoro-6-0-methyl-3-oxo-12,11-(oxycarbonyl( (4-(3H-imidazo(4,5-b)pyridin-3-yl)-butyl)-imino))-erythromycin]
activity on gram (-) bacterial strains [13]: very useful activity
